Where two headings read alike, the source gives them in different places.
Assays:
[1] = Acute toxicity by single administration (LD50, Litchfield and Wilcoxon); conditions: in vivo
Description: Toxicity by single administrations of TF 914 was studied in the mouse and the rat, by oral and intraperitoneal route.
LD₅₀ values were calculated according to the method of Litchfield and Wilcoxon (J. Pharm. Exp. Therap., 1949, 96, 99).
The obtained results, which are summarized in table 1, evidenced that TF 914 has no toxicity.

[2] = tested on: Carrageenin oedema in the rat; assay: Antiinflammatory activity - carrageenin oedema test (Winter method); type: in vivo; conditions: for PAW/VOLUME ml/10 - M ± ES 2h / PAW/VOLUME ml/10 - M ± ES 4h / PAW/VOLUME ml/10 - M ± ES 6h / PAW/VOLUME ml/10 - M ± ES 8h / PAW/VOLUME ml/10 - M ± ES 24h / PAW/VOLUME ml/10 - M ± ES Basal: equimolecular doses p.o. (ASA 100 mg/kg, TF 914 180 mg/kg) 30 minutes before carrageenin; for PAW/VOLUME ml/10 - M ± ES Basal: 10 animals; for AREAS Δ % M ± ES: area of the oedema curve; for AREAS Δ % M ± ES / AREAS inhib. vs. contr.: p.o. (ASA 100 mg/kg, TF 914 180 mg/kg); for AREAS inhib. vs. contr.: inhibition of area vs. control
Description: Antiinflammatory activity of TF 914 was evaluated by means of the carrageenin oedema test in the rat, according to the method of Winter, Rissly, Ness (Proc. Soc. Exp. Biol. Med., 1962, 111, 544), in comparison with acetylsalicylic acid at equimolecular doses.
The compound under test and acetylsalicylic acid, as a comparison, were administered by the oral route 30 minutes before subplantar injection of carrageenin. […]
The obtained results, which are shown in table 2, evidence the marked antiinflammatory activity of TF 914, said activity being higher than that of acetylsalicylic acid in equimolecular doses, under the experimental conditions used.

[3] = tested on: carrageenin induced pleuritis; assay: Antiinflammatory activity - carrageenin induced pleuritis test (Vinegar method); type: in vivo, rat; conditions: 5 h; for EXUDATE VOLUME ml: 100 mg/kg p.o. 1 hour before carrageenin; for N. LEUKOCYTES % inhib. vs. contr. / EXUDATE VOLUME % vs.contr. / N. LEUKOCYTES ml: 100 mg/kg p.o.; for EXUDATE VOLUME % vs.contr.: protection on exudate volume; for N. LEUKOCYTES ml: total number of leukocytes in pleuric exudate
Description: The antiinflammatory activity was tested by the carrageenin induced pleuritis test in the rat, according to the method of Vinegar R. et al. (Proc. Soc. Exp. Biol. Mod., 1973, 143, 3).
TF 914 and phenylbutazone as a control were administered orally in equiponderal doses, 1 hour before the carrageenin injection in the pleuric cavity.
Five hours later the animals were killed, and volume of the pleuric exudate and total number of leukocytes therein were evaluated.

[4] = tested on: Phenylquinone writhing in the mouse; assay: Analgesic activity - phenylquinone writhing test (Siegmund method); type: in vivo; conditions: for Mean number of writhings: equimolecular doses os (acetylsalicylic acid 100 mg/kg, TF 914 180 mg/kg) 30 min. before i.p. phenylquinone; for N. animals showing writhing / % inhib. vs. contr.: os (acetylsalicylic acid 100 mg/kg, TF 914 180 mg/kg); for % inhib. vs. contr.: writhings
Description: The analgesic activity was studied by the quinone writhing test in the mouse according to the method of Siegmund E. et al. (Proc. Soc. Exp. Biol. Med., 1957, 95, 729). TF 914 was orally administered, in comparison with acetylsalicylic acid, in equimolecular doses. The two drugs were administered 30 min. before intraperitoneal injection of phenylquinone.

[5] = tested on: bronchosecretolytic activity; assay: Bronchosecretolytic activity (Mawatari method); type: in vivo, male Wistar rat; conditions: equimolecular doses os (TF 914 360 mg/kg, Thiola 200 mg/kg); 10 animals
Description: The bronchosecretolytic activity was evaluated in the male Wistar rat by oral administration of TF 914 ac cording to the method of Mawatari (Mawatari H. Kagoshima Daigaku Igaku-Zasshi- 27, 561, 1976), in comparison with Thiola®, in equimolecular doses.

gastric mucosa = type: in vivo, rats
Description: The action of equimolecular doses of TF 914 and acetylsalicylic acid on gastric mucosa was evaluated by administering the products by the oral route to rats fasted for 18 hours at least.

[6] = Pharmacokinetics after oral administration, HPLC; type: in vivo; conditions: rat, equimolecular doses, vs. acetylsalicylic acid and Thiola
Description: The pharmakinetics studies on TF 914 were carried out in the rat, in comparison with acetylsalicylic acid and Thiola®, after oral administration of equimolecular doses of the three compounds.
Measurements were performed by HPLC.

Compound | PAW/VOLUME ml/10 - M ± ES 2h [2] | PAW/VOLUME ml/10 - M ± ES 4h [2] | PAW/VOLUME ml/10 - M ± ES 6h [2] | PAW/VOLUME ml/10 - M ± ES 8h [2] | PAW/VOLUME ml/10 - M ± ES 24h [2] | PAW/VOLUME ml/10 - M ± ES Basal [2] | AREAS Δ % M ± ES [2] | AREAS inhib. vs. contr. [2] | EXUDATE VOLUME ml [3] | N. LEUKOCYTES % inhib. vs. contr. [3] | N. LEUKOCYTES ml [3] | Mean number of writhings [4] | N. animals showing writhing [4] | % inhib. vs. contr. [4] [%] | % increase of FlNa in comparison with controls [5] [%] | other results
CC(SC1(C)OC(=O)c2ccccc2O1)C(=O)NCC(=O)O (stereo not drawn) [TF 914, 2-methyl-2[1-(carboxy-methyl-amino-carbonyl)ethyl]thio-4-oxo-benzodioxane-1.3] | 53,3 ± 1,6 ml/10 | 60,4 ± 2,0 ml/10 | 61,8 ± 2,7 ml/10 | 54,5 ± 2,8 ml/10 | 45,1 ± 1,5 ml/10 | 42,8 ± 0,7 ml/10 | 145,4 ± 20,4% | 43,3 | 1,79 ±0,25 ml | 19.5% | 10,84 ±1,32 ml | 1.8 ± 1.1 | 3/10 | 85.93 | 35.6 | LD50 ([1]; ip, Mouse): > 3000 mg/kg; LD50 ([1]; po, Mouse, os): > 3000 mg/kg; LD50 ([1]; po, Rat, os): > 3000 mg/kg; N. LEUKOCYTES % inhib. vs. contr. ([3]; listed as MR 914): 19,5%; EXUDATE VOLUME % vs.contr. ([3]; 100 mg/kg): 27.2%; EXUDATE VOLUME % vs.contr. ([3]; listed as MR 914, 100 mg/kg): 27,2%; gastro-injuring action (in words) (gastric mucosa; rat, in vivo, po): substantially has no gastro-injuring action; bioavailability (in words) [6]: better bioavailability; persistence in blood stream (in words) [6]: remain in blood stream for longer periods
CC(=O)Oc1ccccc1C(=O)O [ASA, Acetylsalicylic acid, reference compound] | 58,3 ± 2,5 ml/10 | 66,0 ± 3,0 ml/10 | 59,3 ± 1,7 ml/10 | 52,8 ± 2,6 ml/10 | 45,3 ± 1,5 ml/10 | 43,1 ± 1,5 ml/10 | 161,5 ± 20,9% | 37,0 |  |  |  | 1.4 ± 0.9 | 3/10 | 89.06 |  | Ulcer size (mm) x ± es (gastric mucosa; equimolecular doses os (ASA 100 mg/kg, TF 914 180 mg/kg), rats fasted at least 18 hours, 6 hours after treatment): 3.6 ± 1.34 mm; gastro-injuring action (in words) (gastric mucosa; examination of the mucosa 6 hours after oral treatment, equimolecular doses): marked gastro-injuring effects
CC(S)C(=O)NCC(=O)O (stereo not drawn) [Thiola®, reference compound] |  |  |  |  |  |  |  |  |  |  |  |  |  |  | 33.4 | 
CCCCC1C(=O)N(c2ccccc2)N(c2ccccc2)C1=O [PHENYLBUTAZONE, phenylbutazone, reference compound] |  |  |  |  |  |  |  |  | 1,75 ±2,25 ml | 36,7% | 8,52 ±1,27 ml |  |  |  |  | EXUDATE VOLUME % vs.contr. [3]: 28,9%
